Results: ChEMBL document CHEMBL5375953, “Discovery of Biaryl Amide Derivatives as Potent, Selective, and Orally Bioavailable RORγt Agonists for Cancer Immunotherapy” (J Med Chem, 2023)

Legend:
[1] = Antitumor activity against mouse Lung adenocarcinoma cell line xenografted in C57BL/6 mouse assessed as tumor growth inhibition at 50 mg/kg,ip administrated on day 7 for 12 days relative to control; format: functional; details: 288 h, time 12 day, read-out: TGI
[2] = Genotoxicity in Salmonella typhimurium TA98 by mini-Ames mutagenicity test; format: toxicity; details: salmonella enterica subsp. enterica serovar typhimurium
[3] = Metabolic Stability in mouse liver microsome assessed as intrinsic clearance at […] measured upto 60 mins by HPLC-MS/MS analysis; format: ADME; details: microsomes, 1 h
[4] = Half life in CD-1 mouse at 5 mg/kg,po administration measured after 24 hrs by LC-MS/MS analysis; format: ADME, organism-based; details: in vivo
[5] = Metabolic Stability in dog liver microsome assessed as half life at […] measured upto 60 mins by HPLC-MS/MS analysis; format: ADME, Canis lupus familiaris; details: liver microsomes
B16-F10 [6] = experiment: Antitumor activity against mouse B16-F10 cells xenografted in C57BL/6 mouse assessed as tumor growth inhibition at 100 mg/kg,ip administrated on day 7 for 8 days relative to control; format: functional; details: B16-F10, 192 h, time 8 day, read-out: TGI
[7] = Cmax in dog at 2 mg/kg,po administration measured after 24 hrs by LC-MS/MS analysis; format: ADME, organism-based, Canis lupus familiaris; design: dose 2 mg/kg, time 24 hrs, route po; details: in vivo
B16-F10 [8] = experiment: Antitumor activity against mouse B16-F10 cells xenografted in C57BL/6 mouse assessed as tumor growth inhibition at 50 mg/kg,ip administrated on day 7 for 8 days relative to control; format: functional; details: B16-F10, 192 h, time 8 day, read-out: TGI
[9] = Half life in dog at 1 mg/kg,iv administration measured after 24 hrs by LC-MS/MS analysis; format: ADME, organism-based, Canis lupus familiaris; details: in vivo
[10] = AUC(infinity) in rat at 5 mg/kg,po administration measured after 24 hrs by LC-MS/MS analysis; format: ADME, organism-based; design: time 24 hrs, dose 5 mg/kg, route po; details: in vivo
[11] = Volume of distribution at steady state in dog at 1 mg/kg,iv administration measured after 24 hrs by LC-MS/MS analysis; format: ADME, organism-based, Canis lupus familiaris; details: in vivo, read-out: Vdss
[12] = Toxicity against C57BL/6 mouse xenografted with mouse Lung adenocarcinoma cell line assessed as change in body weight at 50 mg/kg,ip administrated on day 7 for 12 days; format: organism-based; details: in vivo, 288 h, time 12 day
[13] = Metabolic Stability in human liver microsome assessed as intrinsic clearance at […] measured upto 60 mins by HPLC-MS/MS analysis; format: ADME; details: microsomes, 1 h
[14] = Clearance in dog at 1 mg/kg,iv administration measured after 24 hrs by LC-MS/MS analysis; format: ADME, organism-based, Canis lupus familiaris; details: in vivo
[15] = Toxicity against C57BL/6 mouse xenografted with mouse Lung adenocarcinoma cell line assessed as change in body weight at 25 mg/kg,ip administrated on day 7 for 12 days; format: organism-based; details: in vivo, 288 h, time 12 day
[16] = Volume of distribution at steady state in rat at 1 mg/kg,iv administration measured after 24 hrs by LC-MS/MS analysis; format: ADME, organism-based; details: in vivo, read-out: Vdss
[17] = Half life in rat at 1 mg/kg,iv administration measured after 24 hrs by LC-MS/MS analysis; format: ADME, organism-based; details: in vivo
[18] = Toxicity against C57BL/6 mouse xenografted with mouse Lung adenocarcinoma cell line assessed as change in body weight at 100 mg/kg,po administrated on day 7 for 12 days; format: organism-based; details: in vivo, 288 h, time 12 day
[19] = AUC(infinity) in dog at 1 mg/kg,iv administration measured after 24 hrs by LC-MS/MS analysis; format: ADME, organism-based, Canis lupus familiaris; design: time 24 hrs, dose 1 mg/kg, route iv; details: in vivo
[20] = Metabolic Stability in cynomolgus monkey liver microsome assessed as microsomal intrinsic clearance at […] measured upto 60 mins by HPLC-MS/MS analysis; format: ADME, Macaca fascicularis; details: liver microsomes, read-out: CLH
[21] = Oral bioavailability in rat at 5 mg/kg administration measured after 24 hrs by LC-MS/MS analysis; format: ADME, organism-based; details: in vivo
[22] = Antitumor activity against mouse Lung adenocarcinoma cell line xenografted in C57BL/6 mouse assessed as tumor growth inhibition at 25 mg/kg,ip administrated on day 7 for 12 days relative to control; format: functional; details: 288 h, time 12 day, read-out: TGI
[23] = AUC(infinity) in CD-1 mouse at 5 mg/kg,po administration measured after 24 hrs by LC-MS/MS analysis; format: ADME, organism-based; design: dose 5 mg/kg, time 24 hrs, route po; details: in vivo
[24] = Metabolic Stability in mouse liver microsome assessed as half life at […] measured upto 60 mins by HPLC-MS/MS analysis; format: ADME; details: liver microsomes
[25] = AUC(infinity) in dog at 2 mg/kg,po administration measured after 24 hrs by LC-MS/MS analysis; format: ADME, organism-based, Canis lupus familiaris; design: dose 2 mg/kg, time 24 hrs, route po; details: in vivo
[26] = AUC(infinity) in CD-1 mouse at 1 mg/kg,iv administration measured after 24 hrs by LC-MS/MS analysis; format: ADME, organism-based; design: time 24 hrs, dose 1 mg/kg, route iv; details: in vivo
B16-F10 [27] = experiment: Antitumor activity against mouse B16-F10 cells xenografted in C57BL/6 mouse assessed as tumor growth inhibition at 25 mg/kg,ip administrated on day 7 for 8 days relative to control; format: functional; details: B16-F10, 192 h, time 8 day, read-out: TGI
[28] = Genotoxicity in Salmonella typhimurium TA100 by mini-Ames mutagenicity test; format: toxicity; details: salmonella enterica subsp. enterica serovar typhimurium
[29] = Metabolic Stability in dog liver microsome assessed as intrinsic clearance at […] measured upto 60 mins by HPLC-MS/MS analysis; format: ADME, Canis lupus familiaris; details: microsomes, 1 h
[30] = Metabolic Stability in mouse liver microsome assessed as microsomal intrinsic clearance at […] measured upto 60 mins by HPLC-MS/MS analysis; format: ADME; details: liver microsomes, read-out: CLH
[31] = Clearance in rat at 1 mg/kg,iv administration measured after 24 hrs by LC-MS/MS analysis; format: ADME, organism-based; details: in vivo
[32] = Half life in CD-1 mouse at 1 mg/kg,iv administration measured after 24 hrs by LC-MS/MS analysis; format: ADME, organism-based; details: in vivo
[33] = target: Voltage-gated inwardly rectifying potassium channel KCNH2 (Homo sapiens, UniProt Q12809); experiment: Inhibition of hERG potassium channel by patch clamp assay; format: toxicity
[34] = Toxicity against C57BL/6 mouse xenografted with mouse B16-F10 cells assessed as body weight loss at 25 to 100 mg/kg,ip administrated on day 7 for 8 days; format: organism-based; details: in vivo, 192 h, dose 25-100 mg/kg, time 8 day
[35] = Metabolic Stability in cynomolgus monkey liver microsome assessed as intrinsic clearance at […] measured upto 60 mins by HPLC-MS/MS analysis; format: ADME, Macaca fascicularis; details: microsomes, 1 h
[36] = Metabolic Stability in cynomolgus monkey liver microsome assessed as half life at […] measured upto 60 mins by HPLC-MS/MS analysis; format: ADME, Macaca fascicularis; details: liver microsomes
[37] = Volume of distribution at steady state in CD-1 mouse at 1 mg/kg,iv administration measured after 24 hrs by LC-MS/MS analysis; format: ADME, organism-based; details: in vivo
[38] = Cmax in rat at 5 mg/kg,po administration measured after 24 hrs by LC-MS/MS analysis; format: ADME, organism-based; design: time 24 hrs, dose 5 mg/kg, route po; details: in vivo

Voltage-gated inwardly rectifying potassium channel KCNH2, sequence (Q12809 whole entry): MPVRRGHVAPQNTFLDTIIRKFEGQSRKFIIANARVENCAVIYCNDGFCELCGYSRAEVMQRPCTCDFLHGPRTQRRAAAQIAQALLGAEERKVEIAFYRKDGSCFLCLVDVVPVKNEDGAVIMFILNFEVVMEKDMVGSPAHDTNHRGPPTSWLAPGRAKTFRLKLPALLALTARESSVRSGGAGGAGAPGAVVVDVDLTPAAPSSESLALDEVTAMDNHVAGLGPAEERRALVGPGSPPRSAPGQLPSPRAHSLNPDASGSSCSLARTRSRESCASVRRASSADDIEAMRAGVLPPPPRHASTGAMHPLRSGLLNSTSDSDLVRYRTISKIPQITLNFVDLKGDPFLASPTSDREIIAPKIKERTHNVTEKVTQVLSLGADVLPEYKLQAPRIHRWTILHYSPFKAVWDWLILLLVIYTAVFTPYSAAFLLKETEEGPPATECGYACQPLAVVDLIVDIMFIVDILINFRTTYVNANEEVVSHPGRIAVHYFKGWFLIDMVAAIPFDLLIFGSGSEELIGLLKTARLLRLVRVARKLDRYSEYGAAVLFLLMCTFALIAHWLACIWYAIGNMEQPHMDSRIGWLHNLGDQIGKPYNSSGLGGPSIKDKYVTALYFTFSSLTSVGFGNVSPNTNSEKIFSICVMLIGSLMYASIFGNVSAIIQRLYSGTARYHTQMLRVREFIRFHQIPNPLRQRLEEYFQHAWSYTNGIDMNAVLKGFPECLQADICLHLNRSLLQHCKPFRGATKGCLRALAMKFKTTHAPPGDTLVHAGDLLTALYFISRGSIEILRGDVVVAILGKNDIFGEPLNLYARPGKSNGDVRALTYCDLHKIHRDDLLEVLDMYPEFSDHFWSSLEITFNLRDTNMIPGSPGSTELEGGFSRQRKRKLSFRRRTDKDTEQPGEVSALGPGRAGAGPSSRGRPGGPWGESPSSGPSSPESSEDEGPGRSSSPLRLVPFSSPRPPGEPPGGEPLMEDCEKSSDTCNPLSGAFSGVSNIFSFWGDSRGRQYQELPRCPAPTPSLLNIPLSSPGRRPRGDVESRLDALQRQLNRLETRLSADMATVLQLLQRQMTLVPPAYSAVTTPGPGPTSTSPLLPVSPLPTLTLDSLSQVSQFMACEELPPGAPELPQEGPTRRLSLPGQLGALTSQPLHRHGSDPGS

Structure (SMILES): CCS(=O)(=O)c1ccc(CC(=O)Nc2cc(Cl)c(-c3ccc(OC(C)C)c(C#N)c3)c(Cl)c2)cc1
- inhibition in vivo at 50 mg/kg [1]: 75.6%
- Activity [2]: Non-Toxic
- CLH [3]: < 38 µL/min/mg
- half-life [4]: 6 h
- half-life [5]: > 2.42 h
- inhibition in vivo at 100 mg/kg (B16-F10 [6]): 77.9%
- Cmax [7]: 518 ng/mL
- inhibition in vivo at 50 mg/kg (B16-F10 [8]): 54.7%
- half-life [9]: 46.5 h
- AUC(0-inf) [10]: 10600 ng·h/mL
- Vd [11]: 2.5 L/kg
- Activity [12]: Non-Toxic
- CLH [13]: < 8.6 µL/min/mg
- clearance [14]: 0.64 mL/min/kg
- Activity [15]: Non-Toxic
- Vd [16]: 2.8 L/kg
- half-life [17]: 11.2 h
- Activity [18]: Non-Toxic
- AUC(0-inf) [19]: 27000 ng·h/mL
- microsomal CLint [20]: 44.6 µL/min/mg
- bioavailability [21]: 39.4%
- inhibition in vivo at 25 mg/kg [22]: 46.2%
- AUC(0-inf) [23]: 20600 ng·h/mL
- half-life [24]: > 2.42 h
- AUC(0-inf) [25]: 33000 ng·h/mL
- AUC [26]: 4621.9 ng·h/mL
- inhibition in vivo at 25 mg/kg (B16-F10 [27]): 51.6%
- Activity [28]: Non-Toxic
- CLH [29]: < 13.8 µL/min/mg
- microsomal CLint [30]: < 9.6 µL/min/mg
- clearance [31]: 3.2 mL/min/kg
- t1/2 [32]: 6.3 h
- IC50 [33]: > 10 µM
- Activity [34]: Non-Toxic
- CLH [35]: 60.2 µL/min/mg
- half-life [36]: 0.518 h
- Vdss [37]: 2 L/kg
- Cmax [38]: 503 ng/mL
